These results are taken from patent US20200216906A1, “METHODS AND COMPOSITIONS RELATING TO THE DIAGNOSIS AND TREATMENT OF CANCER” (PRESIDENT AND FELLOWS OF HARVARD COLLEGE, priority 2015, published 2020).

Where only a bound is given, the exact number is not on record here.

Series [1] relates to Panc02.13 cells with NF2 depletion. The experiment in a line: High-density spheroid assay, NF2-depleted Panc02.13 cells. Type of series: cell-based, human. The text has this: In cells at low cell density, where YAP is localized to the nucleus, presumably YAP dependent transcription is turned on. At high density, YAP is in the cytoplasm, transcription is blocked and resistance to gemcitabine is high. Given these correlations it was asked whether inactivation of Hippo pathway could restore gemcitabine sensitivity in crowded conditions. Expression of a non-phosphorylatable form of YAP (YAPS6A) in Panc02.13 pancreatic cancer cells causes constitutive nuclear localization of exogenous YAP even at high crowding (data not shown).

Series [2] relates to pancreatic cancer cell lines. The experiment in a line: Kinetic cell growth assay, panel of pancreatic cancer cell lines. Type of series: cell-based, human. The note with it: low density growth conditions (Hippo-Off); read-out: EC50 on pancreatic cancer cell growth. As for the experimental part:
(§1) The effect of gemcitabine on pancreatic cancer cell growth was studied using a kinetic cell growth assay. Pancreatic cancer cells were plated on 96-well plates (Essen ImageLock, Essen Instruments, MI, US) at varying densities (2-4×10^3 for low density or 15-20×10^3 for high density experiments). Small molecule inhibitors at different doses were added 24 hours after plating and cell confluence was monitored with Incucyte Live-Cell Imaging System and software (Essen Instruments). Confluence was observed every hour for 48-144h or until the control (DMSO only) samples reached 100% confluence.
FIG. 20A illustrates the kinetic cell growth assay to determine the effect of gemcitabine in a panel of pancreatic cancer cell lines. Cells are plated at low crowding conditions (10-25% confluence) and 24 hours later exposed to gemcitabine in a dose-dependent manner. They are imaged every 1-3 hours until control (vehicle) treated cells reach 100% confluence. This assay is not confounded by the fact that the time required for each cell line to reach 100% confluence may be very different (as the cell lines have different doubling times). A dose response effect of gemcitabine on cell growth for 16 pancreatic cancer cell lines is shown in FIGS. 20B, 3, 31A-31C and 28, where the range of previous studies is also shown. […] Similar responses to gemcitabine were found in liver cancer cell lines (Huh7 and FOCUS) and untransformed (HEK293) cell lines (FIGS. 3, 31A-31C).
as §1, with “Kinetic Cell growth assay. The” for “The”, “(2-4X103” for “(2-4×10^3”, “15-20X103” for “15-20×10^3”, “Incucyte™” for “Incucyte”

Another series concerns CDA. Description: CDA expression after verteporfin treatment. Format: cell-based, human. The note with it: verteporfin treatment of Panc02.13 cells, p<0.05. The protocol:
Cells were serum-starved for 24 h and total cellular RNA was isolated using an RNeasy™ Mini Kit (QIAGEN, Santa Clara, Calif.). mRNA levels for the EMT-related genes were determined using the RT^2 Profiler™ qPCR array (SA Biosciences Corporation, Frederick, Md.). Briefly, 1 μg of total RNA was reverse transcribed into first strand cDNA using an RT^2 First Strand™ Kit (SA Biosciences). The resulting cDNA was subjected to qPCR using human gene-specific primers for 75 different genes, and five housekeeping genes (B2M, HPRT1, RPL13A, GAPDH, and ACTB). The qPCR reaction was performed with an initial denaturation step of 10 min at 95° C., followed by 15 s at 95° C. and 60 s at 60° C. for 40 cycles using an Mx3000P™ QPCR system (Stratagene, La Jolla, Calif.).
The activity of the Hippo pathway not only affected the efflux of gemcitabine but also its major metabolite, dFdU (FIG. 22B).
RNA extraction and quantitative real-time PCR. Cells were serum-starved for 24 h and total cellular RNA was isolated using an RNeasy Mini Kit (QIAGEN, Santa Clara, Calif.). mRNA levels for the EMT-related genes were determined using the RT2 Profiler™ qPCR array (SA Biosciences Corporation, Frederick, Md.). Briefly, 1 μg of total RNA was reverse transcribed into first strand cDNA using an RT2 First Strand Kit (SA Biosciences). […]

Another series deals with Panc02.13 cells. The experiment in a line: 3D spheroid growth assay, Panc02.13 (GFP/parental) cells. The note with it: read-out: EC50 in 3D-spheroid assays; 3D-spheroid (Hippo-on).
Series [3] deals with Panc02.13 cells expressing YAPS6A. The experiment in a line: Gemcitabine and dFdU efflux by LC-MS/MS, Panc02.13 YAPS6A vs GFP. Particulars: less efflux in YAPS6A after gemcitabine treatment, p<0.05. Type of series: in vitro ADME, human. The source says: It was considered whether the Hippo pathway might affect the efflux of gemcitabine and/or its metabolites. To assess directly gemcitabine efflux in conditioned media of pancreatic cancer cells both radiolabeled gemcitabine and LC-MS/MS-based methods were used. Panc02.13 cells grown in highly crowded conditions (Hippo-ON) pumped out 2-3-fold more radiolabeled gemcitabine (counts per μg protein) compared with cells grown in less crowded conditions (Hippo-OFF) (FIG. 22A). Another pathway of inactivation and export is the enzymatic conversion of gemcitabine to a uracil derivative (2′,2′-difluorodeoxyuridine, dFdU) by deamination catalyzed by cytidine deaminase (CDA)(Veltkamp et al., 2008). The efflux of gemcitabine and its deaminated metabolite, dFdU was measured by LC-MS/MS (24) in Panc02.13 cells expressing YAPS6A or vector control after gemcitabine treatment (FIG. 22B).

The subject of another series is H2052 (LATS2) cells. Description: Gemcitabine and dFdU efflux by LC-MS/MS, H2052 cells. Format: in vitro ADME. The note with it: higher in H2052 (LATS2). The text has this:
Are defects in the Hippo pathway the major cause of gemcitabine sensitivity? […] Restoring the levels of LATS2 in H2052 cells caused an increase in the mRNA and proteins levels of ABCG2 and CDA (FIGS. 23C, 36A-36M).

The subject of series [4] is Miapaca2-YAPS6A xenografts. Description: Mouse xenograft, Miapaca2-YAPS6A. Format: in vivo. The note with it: LC-MS/MS, p<0.01. As for the experimental part:
To assess the gemcitabine response to Hippo pathway inactivation in tumors a mouse xenograft model of pancreatic carcinoma cells and patient-derived xenograft (PDX) models from a variety of solid tumors including human cancers from non-small cell lung, esophagus, breast, mesothelium, ovary, colon, head and neck, sarcoma, and cholangiocarcinoma were used (FIG. 30). In mouse xenograft studies, two human pancreatic cancer cell lines (Miapac2 and Panc02.13) expressing GFP or YAPS6A were injected into athymic mice. Both parental or GFP expressing cells grew rapidly, producing palpable tumors in 5-10 days. When the tumors were ˜200 mm^3 (as measured using a caliper), mice were randomized into treatment and control groups. The […] received i.p. saline injections on alternate days for two weeks, and the latter received gemcitabine (20 mg/kg in Miapaca2-YAPS6A and 50 mg/Kg in Panc02.13-YAPS6A cohorts).
Tumorigenicity in Nude Mice. All in vivo experiments were performed using 6-week-old to 8-week-old athymic nude mice. Mice were maintained in laminar flow rooms with constant temperature and humidity. Miapaca2 or Panc02.13 cells were inoculated subcutaneously (s.c.) into each flank of the mice. Cells (2×10^6 in suspension) were injected on day 0, and tumor growth was followed every 2 to 3 days by tumor diameter measurements using vernier calipers. Tumor volumes (V) were calculated using the formula: V=AB2/2 (A, axial diameter; B, rotational diameter). When the outgrowths were • 200 mm^3, mice were divided at random into two groups (control and treated, n=3-8). The treated group received gemcitabine injection or saline control on alternate days (MWF) for 2 weeks.
Intra-tumor gemcitabine measurements.

As a reminder, the EC50 is the concentration giving half of the maximal effect. Consider verteporfin, for which, in series [1], the “Sensitivity after NF2 depletion” value is reported as “restored sensitivity”. In addition, the results for the EC50 (in series [2]; in the series on Panc02.13 cells) were less than 500 nM and more than 5 µM, respectively. In addition, the “Increase in CDA levels” value with CDA is listed as 3 fold.

As to `O=c1ccn([C@@H]2O[C@H](CO)[C@@H](O)C2(F)F)c(=O)[nH]1` [dFdU, 2′,2′-difluorodeoxyuridine], the “dFdU effluxed, YAPS6A vs GFP expressing cells” value in series [3] came to 5 fold. In addition, in the series on H2052 (LATS2) cells, the “Effluxed dFdU in media, H2052 (LATS2) vs parental H2052 (LATS2−/−)” value is 2-3 fold. In addition, the “Reduction in intra-tumor accumulation of dFdU vs parental control xenografts” value in series [4] is recorded as more than 4 fold.
